{
  "source": "patent US20050239758A1",
  "about": "“Hormone treatment of multiple sclerosis” (priority 2004, published 2005)",
  "molecules": {"B1": {"name": "myelin basic protein (protein, UniProt P02686 1-304, looked up)", "Myelin basic protein": "MGNHAGKRELNAEKASTNSETNRGESEKKRNLGELSRTTSEDNEVFGEADANQNNGTSSQDTAVTDSKRTADPKNAWQDAHPADPGSRPHLIRLFSRDAPGREDNTFKDRPSESDELQTIQEDSAATSESLDVMASQKRPSQRHGSKYLATASTMDHARHGFLPRHRDTGILDSIGRFFGGDRGAPKRGSGKDSHHPARTAHYGSLPQKSHGRTQDENPVVHFFKNIVTPRTPPPSQGKGRGLSLSRFSWGAEGQRPGFGYGGRASDYKSAHKGFKGVDAQGTLSKIFKLGGRDSRSGSPMARR"}},
  "key": {"serum anti-estrogen IgG": {"tested_on": "serum anti-estrogen IgG", "experiment": "Competition ELISA: absorption of serum anti-estrogen IgG with specific and non-specific antigens", "format": "binding, human", "conditions": "for Absorption of serum IgG antibodies by antigen added to the liquid phase: competition ELISA, result in words; for Percent inhibition of serum anti-estrogen IgG after absorption: absorption with 250 μg/mL antigen, NS = non-significant; for Inhibition of anti-estrogen binding to estrogen (IgG): antigen in liquid phase, range over the samples", "experimental": "(§1) Enzyme-linked immunosorbent assay (ELISA) was used for testing antibodies against estrogen and progesterone in the sera of patients with premenstrual asthma and with control subjects. Different rows of microtiter plates (Costar) were coated either with 100 μl of BSA concentration of 10 μg/mL or 100 μl of estrogen-BSA or progesterone-BSA optimal concentration of 10 μg/mL in 0.1 m carbonate-bicarbonate buffer (pH 9.5). Plates were incubated overnight at 4° C. and then washed three times with […] of Tris-buffered saline (TBS) containing 0.05% Tween 20, pH 7.4. […] Plates were washed with PBS-Tween 20 and then 100 μl of control or patient's serum was added to duplicate wells coated either with BSA alone or with estrogen or progesterone bound to BSA. […] Plates were incubated for 2 h (for IgG and IgM) and overnight (for IgE), and then washed four times with PBS-Tween 20. Alkaline-phosphatase-conjugated goat anti-human IgG, IgM or IgE F(ab′)2 fragment at optimal dilution of 1:700 (IgG); 1:500 (IgM) and 1:250 (IgE) was added to corresponding wells. The plates were then incubated for an additional 2 h at room temperature. After washing five times with TBS-Tween buffer, the enzyme reaction was started by adding 100 μl of para-nitrophenylphosphate in 0.1 mL of diethanolamine buffer (1 mg/ml) containing 1 mM MgCl2 and sodium azide, pH 9.8. The reaction was stopped 45 minutes later with 50 μl of 1 N NaOH. The optical density was read at 405 nm (OD405) with a microtiter reader. […] However, this non-specific O.D. was subtracted from wells coated with estrogen or progesterone bound to BSA.\n(§2) For this, microtiter plates were coated with hormones and blocked by the addition of 2% BSA in PBST. 100 μl of serum diluent buffer was added to all wells. […] After a 60-minute incubation, 100 μl serum anti-estrogen or anti-progesterone was added to all wells. […] Results were calculated as a percentage of inhibition in antigen-antibody reaction.\n(§3) To examine whether antibodies to estrogen or progesterone are specific or cross-reactive, competition ELISA was performed by adding specific and non-specific antigens in liquid phase and examined prevention of serum antibody binding to the antigen in solid phase. […] This cross-reaction between estrogen and progesterone antibodies may be due to structural similarities between these two hormones."}, "serum anti-estrogen IgE": {"tested_on": "serum anti-estrogen IgE", "experiment": "Competition ELISA: absorption of serum anti-estrogen IgE with specific and non-specific antigens", "format": "binding, human", "conditions": "for Absorption of serum IgE antibodies by antigen added to the liquid phase: competition ELISA, result in words; for Percent inhibition of serum anti-estrogen IgE after absorption: absorption with 250 μg/mL antigen, NS = non-significant; for Inhibition of IgE anti-estrogen binding: antigen in liquid phase, range over the samples", "experimental": "as §1, §2, §3"}, "[1]": {"tested_on": "multiple sclerosis symptoms", "experiment": "Clinical case: daily sublingual dilute progesterone in a patient with multiple sclerosis", "format": "in vivo, human", "experimental": "An adult human presented with a diagnosis of multiple sclerosis (MS) from a group of neurologists specializing in MS. They had confirmed the diagnosis with magnetic resonance imaging (MRI) scans showing demylination of major nerves. They were evaluated for hormone allergy therapy by assessing their anti-hormone antibodies and found to have elevated levels of anti-progesterone IgG and IgM antibodies. They then received progesterone 1:10 sublingual treatment, daily. Within a month of their initial diagnosis, they rated their symptoms at a 10 on a scale of 1-10, with 10 representing the worst symptoms experienced. A year after diagnosis, but before beginning low dosage hormone therapy, they rated their symptoms at a 5. They then began receiving daily sublingual progesterone (1:10) treatment. They reported an immediate reduction of their symptoms to a 3 or 4. After over a year of therapy, they reported their symptoms to be generally about a 2 with days where they have been a 0 or 1. On one occasion, the subject ran out of drops and, therefore, temporarily discontinued therapy."}},
  "data": [
    {"molecule": "bovine serum albumin [BSA]", "values": [
      {"measurement": "Absorption of serum IgG antibodies by antigen added to the liquid phase", "setting": "serum anti-estrogen IgG", "result": "did not absorb"},
      {"measurement": "Absorption of serum IgE antibodies by antigen added to the liquid phase", "setting": "serum anti-estrogen IgE", "result": "did not absorb"}
    ]},
    {"molecule": "CC(=O)[C@H]1CC[C@H]2[C@@H]3CCC4=CC(=O)CC[C@]4(C)[C@H]3CC[C@]12C", "note": "[progesterone]", "values": [
      {"measurement": "Symptoms on temporary discontinuation of therapy", "setting": "[1]; ran out of drops, over a period of several days until therapy restarted", "result": "steadily worsened"},
      {"measurement": "Self-rated symptoms, generally, after over a year of therapy", "setting": "[1]; scale of 1-10, 10 = worst, progesterone 1:10 sublingual daily, rated 5 before therapy", "result": "~2"}
    ]},
    {"molecule": "Progesterone-BSA [Pn]", "values": [
      {"measurement": "Percent inhibition of serum anti-estrogen IgG after absorption", "setting": "serum anti-estrogen IgG; Sample 1", "result": "(52%)"},
      {"measurement": "Percent inhibition of serum anti-estrogen IgG after absorption", "setting": "serum anti-estrogen IgG; Sample 2", "result": "(45%)"},
      {"measurement": "Percent inhibition of serum anti-estrogen IgG after absorption", "setting": "serum anti-estrogen IgG; Sample 3", "result": "(41%)"},
      {"measurement": "Inhibition of anti-estrogen binding to estrogen (IgG)", "setting": "serum anti-estrogen IgG", "result": "41-52%"},
      {"measurement": "Absorption of serum IgG antibodies by antigen added to the liquid phase", "setting": "serum anti-estrogen IgG", "result": "significantly absorbed"},
      {"measurement": "Percent inhibition of serum anti-estrogen IgE after absorption", "setting": "serum anti-estrogen IgE; Sample 1", "result": "(37%)"},
      {"measurement": "Percent inhibition of serum anti-estrogen IgE after absorption", "setting": "serum anti-estrogen IgE; Sample 2", "result": "(41&) %"},
      {"measurement": "Percent inhibition of serum anti-estrogen IgE after absorption", "setting": "serum anti-estrogen IgE; Sample 3", "result": "(43%)"},
      {"measurement": "Inhibition of IgE anti-estrogen binding", "setting": "serum anti-estrogen IgE", "result": "37-43%"},
      {"measurement": "Absorption of serum IgE antibodies by antigen added to the liquid phase", "setting": "serum anti-estrogen IgE", "result": "significantly absorbed"}
    ]},
    {"molecule": "Estrogen-BSA", "values": [
      {"measurement": "Percent inhibition of serum anti-estrogen IgG after absorption", "setting": "serum anti-estrogen IgG; Sample 1", "result": "(67%)"},
      {"measurement": "Percent inhibition of serum anti-estrogen IgG after absorption", "setting": "serum anti-estrogen IgG; Sample 2", "result": "(59%)"},
      {"measurement": "Percent inhibition of serum anti-estrogen IgG after absorption", "setting": "serum anti-estrogen IgG; Sample 3", "result": "(52%)"},
      {"measurement": "Inhibition of anti-estrogen binding to estrogen (IgG)", "setting": "serum anti-estrogen IgG", "result": "52-67%"},
      {"measurement": "Absorption of serum IgG antibodies by antigen added to the liquid phase", "setting": "serum anti-estrogen IgG", "result": "significantly absorbed"},
      {"measurement": "Percent inhibition of serum anti-estrogen IgE after absorption", "setting": "serum anti-estrogen IgE; Sample 1", "result": "(55%)"},
      {"measurement": "Percent inhibition of serum anti-estrogen IgE after absorption", "setting": "serum anti-estrogen IgE; Sample 2", "result": "(54%)"},
      {"measurement": "Percent inhibition of serum anti-estrogen IgE after absorption", "setting": "serum anti-estrogen IgE; Sample 3", "result": "(62%)"},
      {"measurement": "Inhibition of IgE anti-estrogen binding", "setting": "serum anti-estrogen IgE", "result": "54-62%"},
      {"measurement": "Absorption of serum IgE antibodies by antigen added to the liquid phase", "setting": "serum anti-estrogen IgE", "result": "significantly absorbed"}
    ]},
    {"molecule": "B1", "values": [
      {"measurement": "Absorption of serum IgG antibodies by antigen added to the liquid phase", "setting": "serum anti-estrogen IgG", "result": "did not absorb"},
      {"measurement": "Absorption of serum IgE antibodies by antigen added to the liquid phase", "setting": "serum anti-estrogen IgE", "result": "did not absorb"}
    ]}
  ]
}
